Measured values taken from paper PMC12668310, “High‐Throughput Synthesis and Screening of a Cyanimide Library Identifies Selective Inhibitors of ISG15‐Specific Protease mUSP18” (Angewandte Chemie (International Ed. in English), 2025).

Assays:
mUSP18 [1] = biological target: T1, mUSP18 (Mus musculus, UniProt Q9WTV6); test: kinact/KI determination (kobs plot); format: biochemical, murine
T1 construct: (46-368); His-tag (N); made in house
T1 sequence (Q9WTV6 46-368): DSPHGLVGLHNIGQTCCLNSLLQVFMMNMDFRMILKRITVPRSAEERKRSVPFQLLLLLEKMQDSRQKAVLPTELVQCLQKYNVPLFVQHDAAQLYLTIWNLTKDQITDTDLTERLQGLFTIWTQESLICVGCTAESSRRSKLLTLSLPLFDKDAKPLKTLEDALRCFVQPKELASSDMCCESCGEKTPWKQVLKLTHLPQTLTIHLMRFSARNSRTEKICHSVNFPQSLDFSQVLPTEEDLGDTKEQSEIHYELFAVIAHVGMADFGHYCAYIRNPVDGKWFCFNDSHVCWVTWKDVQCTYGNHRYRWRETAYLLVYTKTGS

mUSP18 [2] = biological target: T1, mUSP18; test: Covalent complex formation, intact protein mass spectrometry; format: binding, murine; conditions: 1.4 μM mUSP18, 14 µM compound, 30 min
Procedure: We further explored the potential of our mUSP18 hits. […] Based on previous data, these cyanimides likely bind to mUSP18 in a covalent manner. Indeed, intact protein mass spectrometry analysis confirmed the formation of a covalent stoichiometric mUSP18‐BB07CA902 complex, showing a mass difference of 311 Da, which corresponds to the addition of exactly one molecule of BB07CA902 (Figures 5c, S9). […] (Figure S9).
High-throughput screening
The screens were performed at room temperature in “flat bottom, non-treated, black […]
µM. The compounds (10 nL each) were transferred from the 1 mM daughter plates to the […]
Four wells containing DMSO
(10 nL) and four wells containing NEM (10 mM final concentration) were used in each plate […]
The percentage inhibition was calculated for each well using the […]
Where FIx is the fluorescence intensity of each well, FIpos is the average fluorescence intensity of the positive (NEM) control wells, and FIneg is the average fluorescence intensity of the negative (DMSO) control wells. […]
Samples were then diluted 3-fold with water and analyzed by mass spectrometry by injecting 2 μL into a Waters XEVO-G2 XS Q-TOF mass spectrometer equipped with an electrospray ion source in positive mode (capillary voltage 1.2 kV, desolvation gas flow 900 L/h, T = 60 °C) with a resolution of R = 26,000. […]

kinact/KI (mUSP18 [1]): 4650 M⁻¹ s⁻¹
mass difference of covalent stoichiometric mUSP18-inhibitor complex (mUSP18 [2]): 311 Da
SMILES: Cc1cc(C(=O)N[C@H]2C[C@@H]3CN(C#N)C[C@@H]3C2)ccc1C(C)C [BB07CA902]
